Measurements as given in patent US6365571B1, “FGF inhibitor, angiogenesis inhibitor and antitumor agent containing complestatin or its derivative as effective ingredient” (NODA Institute for Scientific Research, priority 1998, dated 2002).

Columns and labels:
bFGF receptors = assay: Inhibition of specific binding of 125I-bFGF to receptors on Balb/3T3 clone A31 cells; set-up: species or system mouse; details: various concentrations, 2 ng/ml 125I-bFGF, 1.5 hours at 4° C., FIG. 5
Procedure: (3) Inhibitory effects on binding of bFGF to receptors was investigated for the above-mentioned sample solution according to the method of A. Yayon, et al. (Proc. Natl. Acad. Sci., USA, 90, 10643, 1993).
Namely, 1 ml of medium containing mouse fibroblast cell Balb/3T3 clone A31 cells at a concentration of 1×10^5 cells/ml (Dulbecco's modified Eagle's medium containing 10% calf serum, 25 mM HEPES (pH 7.5), 10 units/ml of penicillin and 10 μg/ml of streptomycin (10% CS/DMEM)) was added to a 24-well culture plate, and cultured for one day at 37° C. in a CO2 incubator. Furthermore, mouse fibroblast cells are known to express FGF receptors on their cell surfaces (J. Biol. Chem., 268, 9611, 1993). […]
Following completion of the reaction, after removing the binding medium and washing once with cold binding medium, the plate was washed twice with cold PBS (0.2 g potassium chloride, 0.2 g potassium primary phosphate, 8 g sodium chloride, 1.15 g sodium secondary phosphate and 1 liter of deionized water) at pH 7.5 containing 1.6 M sodium chloride. […] This procedure was repeated again, the solution was combined with the previous solution and then transferred to an RIA tube where radioactivity was measured with a gamma counter (available from Pharmacia Co.).
The amount of bFGF bound to receptors (specifically bound amount) was determined according to the following formula: […]

Balb/3T3 clone A31 cells = assay: Inhibition of cell migration stimulated by bFGF (chemotaxis chamber); format: cell-based, mouse; details: various concentrations, 1 ng/ml bFGF, 5 hours, FIG. 7
Text: The effect of complestatin on cell migration stimulated by bFGF was investigated using a 96-well chemotaxis chamber (available from NEURO PROBE CO.) installed with an 8 μm frame filter (available from NEURO PROBE CO.) precoated with gelatin.
The experimental principle is illustrated-in FIG. 6. When bFGF is placed in the bottom well, cells adhered to the frame filter in the top well migrate to the bottom well.
Addition of complestatin to the bottom well can be used to investigate the inhibitory effect of complestatin on cell movement.
(1) 100 μl of cell suspension (0.5% CS/DMEM containing Balb/3T3 clone A31 cells at a concentration of 5×10^5 cells/ml) were placed in the top wells. In addition, 35 μl of 0.5% CS/DMEM containing various concentrations of complestatin and 1 ng/ml of bFGF were placed in the bottom wells.
(2) After incubating the chamber for 5 hours at 37° C. in a CO2 incubator, the frame filter was removed from the chamber, the cells were stained with Diff-Quik staining solution (trade name, available from Kokusai Shiyaku Co.), and the number of cells that migrated to the bottom surface of the filter was counted. Furthermore, with the exception of not adding complestatin to the bottom wells, the same procedure was performed for the control.

[1] = test system: fetal bovine heart endothelial (FBHE) cells; assay: Inhibition of FBHE cell growth stimulated by bFGF; format: cell-based; details: various concentrations, 1 ng/ml bFGF, 2 days, FIG. 8
Procedure: (§1) Growth of both fetal bovine heart endothelial (FBHE) cells and human umbilical vein endothelial cells (HUVEC) was promoted by addition of bFGF to the media. The inhibitory effect of complestatin on the cell growth stimulated by bFGF was investigated using these cells.
(1) 10% CS/DMEM containing FBHE at a concentration of 1×10^4 cells/ml was prepared for the cell suspension. One ml aliquots of this solution were then inoculated into each well of a 12-well plate and cultured for one day at 37° C. in a CO2 incubator. 1 ng/ml of bFGF and various concentrations of complestatin were added to each well followed by additional culturing for 2 days at 37° C. in a CO2 incubator. Next, the number of cells in each well was counted with a Coulter Counter (trade name, available from Coulter Electronics Co.).

[2] = test system: human umbilical vein endothelial cells (HUVEC); assay: Inhibition of HUVEC cell growth stimulated by bFGF; format: cell-based; details: various concentrations, 10 ng/ml bFGF, 2 days, FIG. 8
Procedure: as §1
(2) On the other hand, medium containing HUVEC at a concentration of 1×10^4 cells/ml (MCDB131 medium containing 10% fetal bovine serum, 25 mM HEPES (pH 7.5), 10 units/ml of penicillin and 10 μg/ml of streptomycin) was prepared for the cell suspension. One ml aliquots of the cell suspension were inoculated into each well of a 12-well plate precoated with type I collagen, and incubated for one day at 37° C. in a CO2 incubator. 10 ng/ml of bFGF and various concentrations of complestatin were added to each well followed by additional incubation for 2 days at 37° C. in a CO2 incubator. Next, the number of cells in each well was counted with a Coulter Counter (trade name, available from Coulter Electronics Co.). Furthermore, with the exception of not adding complestatin, the same procedure was performed for the control.

[3] = test system: bovine aortic endothelial cells (BAEC); assay: Tube formation of vascular endothelial cells in collagen gel; format: cell-based; details: Bos taurus, 48 h, 2 days, read-out: Tube formation inhibition rate
Procedure: The inhibitory effect of complestatin on angiogenesis was investigated using a modified method of Furubayashi, et al. (J. Jap. Pharm., 105, 357, 1995). In this method, vascular endothelial cells form a tube (blood vessel-like tubular structure) in collagen gel. Addition of complestatin to this system makes it possible to investigate the inhibitory effect of complestatin on angiogenesis.
(1) Collagen gel was prepared in the manner described below. To begin with, type I collagen solution (3 mg/ml, available from Wako Junyaku Co.), 10-fold concentrated HEPES-free DMEM, reconstitution buffer (2.2 g of sodium bicarbonate and 4.77 g of HEPES dissolved in 100 ml of 0.05 N aqueous sodium hydroxide solution) and deionized water were mixed on ice at a ratio of 5:1:1:3 followed by the addition of 0.75 ml aliquots to each well of a 12-well plate. This plate was then incubated for 20 minutes in an incubator at 37° C. to form a gel.
(2) A cell suspension was prepared by suspending 3×10^5 cells/ml of bovine aortic endothelial cells (BAEC) in 10% CS/DMEM, after which 1.5 ml aliquots were inoculated onto the collagen gel followed by culturing for one day at 37° C. in a CO2 incubator. After removing the medium and washing four times with DMEM, 0.75 ml aliquots of the above-mentioned type I collagen solution were layered onto the plate followed by gelation at 37° C. in an incubator. 1.5 ml of 0.5% CS/DMEM containing various concentrations of complestatin were added to the resulting gel followed by culturing for 2 days at 37° C. in a CO2 incubator.
(3) After culturing, photographs were taken of four fields randomly selected for each well and these photographs were then analyzed by using the Olympus image processing analyzer Type SP500F (trade name, available from Olympus Co.) to determine the lengths of all tubes. The length of tube was then divided by the field area to determine the tube length per unit area.
The tube formation inhibition rate of complestatin was calculated according to the following formula:
{1− (tube length per unit area at each concentration/tube length per unit area in the absence of addition of complestatin)}×100

[4] = test system: chorioallantoic membrane of chick embryo; assay: Angiogenesis in the chick embryo chorioallantoic membrane; format: in vivo; details: 2 days, % of fertilized eggs with inhibition
Procedure: The inhibitory effect of complestatin on angiogenesis in the chorioallantoic membrane of chick embryo was investigated according to the method of T. Oikawa, et al. (J. Antibiotics, 44, 1033, 1991). To begin with, a portion of the uppermost part of the air chamber measuring about 1 cm square was removed from three-day-old fertilized chicken eggs, and cultured for 2 days in a humidified incubator. A silicon ring having an outer diameter of 5 mm and inner diameter of 3 mm was placed on the 5-day-old chorioallantoic membrane, and 10 μl of a 1% methylcellulose solution containing various concentrations of the complestatin obtained in Example 2 were added to the inside of the ring.
Moreover, after incubating for 2 days, a suitable amount of fat emulsion (Intralipos, trade name, available from Midori Juji Co.) was injected beneath the chorioallantoic membrane to facilitate microscopic observation followed by observation of angiogenesis in the chorioallantoic membrane. Fertilized eggs in which a region free of blood vessels in the chorioallantoic membrane (having a diameter of at least 3 mm) were judged as having observed inhibition of angiogenesis by complestatin. Angiogenesis inhibition rate (%) was calculated according to the following formula:
100× (number of fertilized eggs in which inhibition of angiogenesis was observed)/(number of fertilized eggs used in test)

[5] = test system: mouse fibrosarcoma (Meth A) cells; assay: Antitumor activity, Meth A cells transplanted subcutaneously to mice; format: in vivo; details: days 1 to 4 and 7 to 9, BALB/c-nu/nu mice, tumor size after 10 days
Procedure: The antitumor activity of complestatin was confirmed in an experiment using mouse fibrosarcoma (Meth A) cells. To begin with, 1×10^6 Meth A cells cultured in the abdominal cavity of BALB/c-nu/nu mice were transplanted subcutaneously to BALB/c-nu/nu mice (control group: 5 mice, experimental group: 5 mice), and tumor size was measured after 10 days.
Complestatin was dissolved in PBS, and administered intraperitoneally at 250μl/day once a day during days 1 to 4 and days 7 to 9. The dosing concentrations of complestatin were set at 5 mg/kg and 10 mg/kg. The tumor growth inhibition rate caused by complestatin was calculated according to the following formula:
{1− (tumor size at each dosing concentration/tumor size at dosing concentration of 0 mg/kg)}×100

[6] = test system: human leukemia (HL-60) cells; assay: Antitumor activity, HL-60 cells transplanted subcutaneously to SCID mice; format: in vivo, mouse; details: 5 mg/kg intraperitoneally, days 1 to 3, 5 to 9, 12 and 13, CB17 SCID mice, tumor size after 20 days
Procedure: The antitumor activity of complestatin was confirmed in an experiment using human leukemia (HL-60) cells. To begin with, 5×10^6 HL-60 cells were transplanted subcutaneously to CB17. SCID mice (control group: 4 mice, experimental group: 4 mice), and tumor size was measured after 20 days. Complestatin was dissolved in PBS, and administered intraperitoneally at 250μl/day once a day during days 1 to 3, days 5 to 9 and days 12 and 13. The dosing concentration of complestatin was set at 5 mg/kg. The tumor growth inhibition rate caused by complestatin was calculated according to the following formula:
{1− (tumor size at dosing concentration/tumor size at dosing concentration of 0 mg/kg)}×100

For `CN1C(=O)C(c2cc(Cl)c(O)c(Cl)c2)NC(=O)C2NC(=O)C(c3cc(Cl)c(O)c(Cl)c3)NC(=O)C(NC(=O)C(=O)c3cc(Cl)c(O)c(Cl)c3)Cc3c[nH]c4cc(ccc34)-c3cc2cc(c3O)Oc2ccc(cc2)CC1C(=O)NC(C(=O)O)c1ccc(O)cc1` (centres unmarked) [complestatin], the “inhibition of specific binding of 125I-bFGF to receptors” value (bFGF receptors) was “concentration-dependently inhibit”, the “inhibition of Balb/3T3 clone A31 cell migration stimulated by bFGF” value (Balb/3T3 clone A31 cells) was “concentration-dependently inhibit” and the “inhibition of growth of FBHE promoted by bFGF” value [1] was “concentration-dependently inhibit”. For the same compound, the “inhibition of growth of HUVEC promoted by bFGF” value [2] was “concentration-dependently inhibit”, the inhibition at 0.78 µg/mL ([3]; 0.78 μg/ml complestatin) was 3% and the inhibition at 1.6 µg/mL ([3]; 1.6 μg/ml complestatin) was 17%. For the same compound, the inhibition at 3.1 µg/mL ([3]; 3.1 μg/ml complestatin) was 10%, the inhibition at 6.3 µg/mL ([3]; 6.3 μg/ml complestatin) was 21% and the inhibition at 13 µg/mL ([3]; 13 μg/ml complestatin) was 43%. It also gave an inhibition at 25 µg/mL ([3]; 25 μg/ml complestatin) of 91%, an inhibition at 50 µg/mL ([3]; 50 μg/ml complestatin) of 94% and an inhibition at 100 µg/mL ([3]; 100 μg/ml complestatin) of 99%. For the same compound, the Angiogenesis inhibition rate ([4]; 6.25 μg/egg) was 14%, the Angiogenesis inhibition rate ([4]; 12.5 μg/egg) was 33% and the Angiogenesis inhibition rate ([4]; 25 μg/egg) was 33%. The Angiogenesis inhibition rate ([4]; 50 μg/egg) was 52%, the Angiogenesis inhibition rate ([4]; 100 μg/egg) was 77% and the “Growth inhibition rate (tumor size)” value ([5]; 5 mg/kg intraperitoneally) was 40%. The “Growth inhibition rate (tumor size)” value ([5]; 10 mg/kg intraperitoneally) was 68% and the “Growth inhibition rate (tumor size)” value [6] was 76%.
